The record followed here is patent publication US20090232849A1 (priority 2005, published 2009).

“And” between values parts separate entries of the source, which are not always exact repeats. Equal values may be shown once. “Also recorded” adds a separate entry of the source.

This assay has as its system TLT tumor. Also on record: species or system mice. The settings on record: mouse, in vivo.

`O=P1(N(CCCl)CCCl)NCCCO1` (centres unmarked) [cyclophosphamide]: the “regrowth delay to double tumour diameter” value was 7.73 ± 0.38 days and 7.7 ± 0.4 days. For the same compound, for the setting “50 mg/kg”, the “effect of cyclophosphamide alone on regrowth delay” value is on record as “No difference in regrowth delay; also recorded: just below the efficacy threshold”.
